In patent US4272437A, “Antibacterial agents, and 4-thio azetidinone intermediates” (priority 1979, dated 1981) one finds MIC and ED50 data, which are given here for 1 molecule.

Experiment [1] deals with Pr. mirabilis A-9900. As to the kind of experiment: MIC, tube dilution, Proteus mirabilis A9900. It is filed as cell-based. The conditions noted are these: Proteus mirabilis, A9900, Proteus mirabilis A9900; overnight 37° C.; read-out: Minimum Inhibitory Concentration (M.I.C.). An excerpt:
(§1) Representative compounds of the present invention were subjected to in vitro antibiotic screening against a variety of microorganisms.

Experiment [2] has as its system Pr. morganii A-15153. Put plainly: MIC, tube dilution, Proteus morganii A15153. It counts as cell-based. Conditions: Morganella morganii, A15153, Proteus morganii A15153; overnight 37° C.; read-out: Minimum Inhibitory Concentration (M.I.C.).
Description: as §1

For experiment [3], the system named is Proteus mirabilis A9900. Put plainly: In vivo protection of mice, lethal infection with Proteus mirabilis A9900. Conditions: IM, 2 treatments, 1.3 × 10^7 organisms, read-out: PD50. The protocol:
Representative compounds of the present invention were also tested in vivo in mice and their PD50 (dose of compound in mg/kg required to protect 50% of the treated mice against an otherwise lethal infection of a micro-organism) values determined with respect to the test organisms shown below.

Experiment [4] has as its system Ent. cloacae A-9659. Put plainly: MIC, tube dilution, Enterobacter cloacae A9659. It is filed as cell-based. The conditions noted are these: Enterobacter cloacae, A9659, Enterobacter cloacae A9659; overnight 37° C.; read-out: Minimum Inhibitory Concentration (M.I.C.).
Description: as §1

Structures are written as SMILES. Converted amounts (≈) assume the structure as drawn. Where only a bound is given, the exact number is not on record here.

On to `NCCCCC1=C(C(=O)O)N2C(=O)CC2S1` (stereo not shown) [Example 73, 2-(4'-Aminobutyl)-penem-3-carboxylic Acid], for which the MIC in experiment [1] is 8 µg/mL (≈ 33 µM); in experiment [2] it was 32 µg/mL (≈ 132 µM); in experiment [4] it was 63 µg/mL (≈ 260 µM). For the same molecule, the ED50 in experiment [3] is greater than 100 mg/kg.
